Assay results: patent US8637470B2, “Small humanin-like peptides” (The Regents of the University of California, priority 2008, dated 2014)
“Also recorded” adds a separate entry of the source. Where no end group is shown, it is not given here.

Tests used:
[1] = system: 22RV1 prostate cancer xenografts; settings: mouse, in vivo, ip, 4 mg/kg/day
Protocol: Inhibition of 22RV1 xenograft tumor growth and angiogenesis in vivo. In light of the pro-apoptotic actions of SHLP6 in vitro and the association of many cancers with mitochondrial dysfunction, the effect of SHLP6 on tumor growth was investigated in vivo. SCID mice harboring 22RV1 prostate cancer xenografts were treated with 4 mg/kg/day SHLP6 or scrambled control peptide by daily i.p. injection for 7 days.
To assess the mechanism underlying the reduction in tumor growth, tumor apoptosis (TUNEL), angiogenesis (VEGF) and tumor cell proliferation (PCNA; not shown) were assessed by IHC (FIG. 19). […] SHLP6 therefore has great potential as an anti-cancer agent.

[2] = system: Mouse primary cortical neurons; assay: Protection of primary cortical neurons from Aβ-induced cell death (Calcein-AM); assay type: cell-based; settings: 72 h
Protocol: SHLPs protect neurons from Aβ-induced apoptosis. When it was first discovered, HN was described as a potent neural survival factor with clinical implications as a therapeutic agent against neurodegenerative diseases such as Alzheimer's Disease. Since many of the SHLPs appear to be functionally related to HN, SHLPs were tested as potential neuroprotective factors. Mouse primary cortical neurons were incubated with 25 μM Aβ1-43 in the presence or absence of 100 nM SHLP2 or 3, HNG (positive control) or 1 nM colivelin (positive control). After 72 h, neuronal viability was assessed by Calcein-AM staining followed by fluorescence microscopy (FIG. 13).

[3] = system: 22RV1 human prostate cancer cells; assay: Apoptosis ELISA (fragmentation of histone-associated DNA) in 22RV1 cells; assay type: cell-based; settings: 22RV1, serum starved 24 h, then 24 h with 100 nM peptide
Protocol: (§1) SHLPs are anti-apoptotic in 22RV1 prostate cancer cells and NIT-1 β-cells. […] Mouse NIT-1 insulinoma β-cells and 22RV1 human prostate cancer cells were serum starved for 24 h, followed by 24 h incubation with 100 nM scrambled control peptide, HN or SHLPs. Apoptosis was assessed and quantified by ELISA for fragmentation of histone-associated DNA.
(§2) ERK activation is necessary for SHLP-induced inhibition of apoptosis in NIT-1 and 22RV1 cells. To determine the significance of ERK activation for apoptosis inhibition by SHLPs 2 and 3, PD98059 (PD), a specific chemical inhibitor of ERK1/2, was utilized. 22RV1 and NIT-1 cells were serum starved for 24 h in the presence or absence of 25 μM PD or 1 μM wortmannin (PI3-kinase inhibitor; negative control), followed by 24 h incubation with […] scrambled control peptide, SHLP2 or SHLP3. Apoptosis was then assessed by ELISA for fragmentation of histone-associated DNA.
STAT3 Activation is also necessary for SHLP-induced cell survival in 22RV1 cells. Since SHLPs 2 and 3 both stimulate STAT3 phosphorylation in addition to ERK activation, the hypothesis that STAT3 activation occurs downstream of ERK1/2 was tested using a specific chemical inhibitor against STAT3, stattic. 22RV1 cells were incubated for 24 h in SF media in the presence or absence of 20 μM stattic followed by 24 h incubation with 100 nM scrambled control peptide, SHLP2 or SHLP3. Apoptosis was assessed by ELISA for fragmentation of histone-associated DNA. […]

[4] = system: 22RV1 human prostate cancer cells; assay: Cell proliferation (cell number by MTT/MTS cleavage) in 22RV1 cells; assay type: cell-based; settings: 22RV1, 100 nM peptide, 72 h
Protocol: (§3) SHLPs exert distinct effects on cell proliferation. Whether SHLPs have the capacity to influence cell proliferation, in addition to their intrinsic effects on apoptosis induction, was also investigated. Mouse NIT-1 insulinoma β-cells and 22RV1 human prostate cancer cells were serum starved for 24 h, followed by 72 h incubation with 100 nM scrambled control peptide, HN or SHLPs. Cell number, as a measure of cell proliferation, was assessed by cleavage of MTT substrate.
Pro-apoptotic effect on human prostate cancer cells in vitro. To assess the ability of SHLP6 to induce apoptosis in human prostate cancer cells, PC-3, 22RV1 or DU145 cells were incubated in serum free (SF) media for 24 h followed by 24 h incubation with 1 μM scrambled (control) peptide or SHLP6. Apoptosis was assessed by ELISA for fragmentation of histone-associated DNA. In each cell line tested, SHLP6 induced apoptosis by at least 2-fold (FIG. 2), confirming highly significant physiological effects of this novel peptide. To determine whether the effects of SHLP6 were specific to induction of apoptosis, or if it also elicited growth-inhibitory effects, PC-3, DU-145, 22RV1, LAPC4 and LNCaP cells were incubated in SF media for 24 h followed by 72 h incubation with 1 μM SHLP6. Cell number, as a measure of cell proliferation, was assessed by cleavage of MTS substrate.

[5] = system: Mouse NIT-1 insulinoma β-cells; assay: Cell proliferation (cell number by MTT/MTS cleavage) in NIT-1 cells; assay type: cell-based; settings: NIT-1, 100 nM peptide, 72 h
Protocol: as §3

ERK = ERK activation in 22RV1 cells (immunoblotting, ELISA); assay type: cell-based, human; settings: 22RV1, 100 nM
Protocol: Characterization of the intracellular signaling pathways activated by SHLPs. To determine a mechanism for the growth and apoptosis effects of SHLPs, SHLPs were tested for the ability to modulate activation of intracellular signaling pathways. 22RV1 cells in SF media were treated with 100 nM SHLP 1-5 and whole cell extracts were harvested after 15 min, 30 min, 2 h, 4 h, 8 h and 24 h. Proteins were separated by SDS-PAGE and analyzed by immunoblotting.
To test the hypothesis that SHLPs may act in concert to regulate intracellular signaling, 22RV1 cells were co-treated with SHLPs 2 and 3, and ERK activation was assessed.
Since HN causes activation of STAT3, SHLPs 2 and 3 were also tested for effects on STAT3. […] To more accurately quantify the ERK phosphorylation caused by SHLPs 2 and 3, we repeated the experiment as described above but used a commercially available ERK ELISA to assess ERK phosphorylation. Optimal ERK activation by SHLP2 was 9-fold after 24 h, whilst optimal activation by SHLP3 was 12-fold after 2 h (FIG. 5).

biotinylated-HN = biotinylated-HN (Homo sapiens, UniProt Q8IVG9); assay: Dot-blot binding to biotinylated-HN; settings: 2, 5 or 10 nmol peptide dotted on nitrocellulose
Protocol: To test a dimerization hypothesis, we performed a dot-blot using biotinylated-HN. Two, 5 or 10 nmol IGF-I (negative control), HN (positive control) or SHLP peptide were dotted on to nitrocellulose membrane, and their ability to bind to biotinylated-HN was assessed immunologically. […] Specific interactions that occur may be determined using, e.g., dot blots with biotinylated SHLPs, and/or antibodies against specific SHLPs.

[6] = system: Mouse NIT-1 insulinoma β-cells; assay: Apoptosis ELISA (fragmentation of histone-associated DNA) in NIT-1 cells; assay type: cell-based; settings: NIT-1, serum starved 24 h, then 24 h with 100 nM peptide
Protocol: as §1, §2
Role of IGFBP-3 in effects of SHLPs on cell survival. Since IGFBP-3 is an important regulator of HN action, IGFBP-3 was tested for a possible role in regulating the anti- or pro-apoptotic actions of SHLPs. NIT-1 cells were incubated with 1 μg/ml IGFBP-3±0, 10, 100 or 1000 nM SHLP2 or 3 for 24 h. Apoptosis induction was assessed by ELISA for fragmentation of histone-associated DNA.
Co-incubation of SHLPs. To evaluate therapeutic uses involving co-treatment with SHLPs, the effect of HN±SHLPs on apoptosis was tested in both 22RV1 and NIT-1 cells. Cells were incubated in SF media for 24 h followed by 24 h with 100 nM HN, SHLP or peptide combination. Apoptosis was assessed by ELISA for fragmentation of histone-associated DNA. Cells were treated with all possible double peptide combinations. Although many peptide combinations had no additive or combined effects compared with the actions of the peptides individually, co-treatment with certain combinations led to unexpected functional changes (FIG. 11). […] Thus, specific SHLPs may either act on complementary pathways, or interact with each other, leading to change of function of one or both peptides. When the same experiments were repeated in NIT-1 cells, similar, but different, change of function effects were observed (FIG. 11B).

S. cerevisiae = assay: Yeast heat shock survival; assay type: cell-based; settings: 10 μM peptide, 90° heat shock
Protocol: SHLPs enhance stress resistance in yeast. The ability of SHLPs to enhance stress resistance in yeast was tested. The ability of yeast to survive heat shock after being treated with different peptides is a commonly used method to test the ability of peptides to enhance yeast survival.

Substance | Apoptosis (fragmentation of histone-associated DNA) [3] | Cell number as a measure of cell proliferation [4] | Cell number as a measure of cell proliferation [5] | Binding to biotinylated-HN (dot-blot) (biotinylated-HN) | other results
MLDQDIPMVQPLLKVRLFND [SHLP6] | – | – | – | – | Signs of toxicity [1]: no detectable signs of toxicity
HNG: HNG (S14G), hyper-potent HN analog (MAPRGFSCLLLLTGEIDLPVKRRA; Humanin; UniProt Q8IVG9 1-24, looked up, variant S14G) [reference compound] | – | – | – | – | Neuronal viability against Aβ-induced cell death ([2]; 25 μM Aβ1-43, 100 nM peptide): inhibited
MCHWAGGASNTGDARGDVFGKQAG [SHLP1, small humanin-like peptide, mtDNA 2490-2561] | minimal effect | slightly stimulated the proliferation | slightly stimulated the proliferation | no interaction | Duration of sustained ERK phosphorylation (ERK): approximately 8 h; Increase in ERK phosphorylation (immunoblotting) (ERK; within 30 min): 5 fold
colivelin [reference compound] | – | – | – | – | Neuronal viability against Aβ-induced cell death ([2]; 25 μM Aβ1-43, 1 nM colivelin): inhibited
MAPRGFSCLLLLTSEIDLPVKRRA [HN, reference compound] | – | – | – | dimerize/multimerize with itself | Apoptosis (fragmentation of histone-associated DNA) [6]: anti-apoptotic effects; Yeast survival of heat shock (S. cerevisiae): allowed the yeast to withstand 90° heat shock
MYCSEVGFCSEVAPTEIFNAGLVV [SHLP5, small humanin-like peptide, mtDNA 2785-2856] | minimal effect | slightly stimulated the proliferation | slightly stimulated the proliferation | – | ERK activation profile (immunoblotting) (ERK; 15 min to 24 h): no observable effect
MLEVMFLVNRRGKICRVPFTFFNLSL [SHLP4, small humanin-like peptide, mtDNA 2446-2524] | minimal effect | slightly stimulated the proliferation | slightly stimulated the proliferation | very strong interactions; also recorded: binds | Apoptosis (fragmentation of histone-associated DNA) [6]: anti-apoptotic effects
